This is an account of results in BindingDB's records for doi:10.1111/j.1747-0285.2006.00365.x (Johnson & Johnson Pharmaceutical Research & Development, 2006).

In this assay the target is p53 binding protein (Homo sapiens, UniProt Q9H4C2). Briefly: HDM2 Binding Assay. The source says: Binding assay using 1,4-benzodiazepine-2,5-dione (BZD) scaffold and HDM2-p53 protein.
Sequence of p53 binding protein (Q9H4C2 whole entry): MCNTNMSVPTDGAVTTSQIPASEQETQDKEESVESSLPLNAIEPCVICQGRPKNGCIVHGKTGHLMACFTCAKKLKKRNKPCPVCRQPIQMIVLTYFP
The IC50 is the concentration that gives 50% inhibition. Low readings indicate greater potency in that assay, high ones weaker potency in that assay. Regarding `O=C(O)C(c1ccccc1)N1C(=O)c2ccccc2NC(=O)C1c1ccccc1` (stereo not given) [BZD Scaffold, 1], the IC50 is above 125 µM.
Then `CC(C)c1ccc2c(c1)C(=O)N(C(C(=O)O)c1ccc(Cl)cc1)C(c1ccc(Cl)cc1)C(=O)N2` (stereo not given) [BZD Scaffold, 2], with 1 µM; and `O=C(O)C(c1ccccc1)N1C(=O)c2cc(I)ccc2NC(=O)C1c1ccccc1` (stereo not given) [BZD Scaffold, 3], with 29 µM; and `O=C(O)C(c1ccccc1)N1C(=O)c2cc(I)ccc2NC(=O)C1c1ccc(C(F)(F)F)cc1` (stereo not given) [BZD Scaffold, 4], with 3.8 µM.
Then `O=C(O)C(c1ccccc1)N1C(=O)c2cc(I)ccc2NC(=O)C1c1ccc(Cl)cc1` (stereo not given) [BZD Scaffold, 5], with 1.7 µM.
